Laboratory results: ChEMBL document CHEMBL1153994

Legend:
HEK293 = test: Selectivity for PLD1 in human Calu1 cells over GFP-labeled PLD2 in human HEK293 cells; type: cell-based
Phospholipase D1 = target: T1, Phospholipase D1 (Homo sapiens, UniProt Q13393); test: Inhibition of PLD1 in human Calu1 cells; type: cell-based, Calu-1
T1 sequence (Q13393 whole entry): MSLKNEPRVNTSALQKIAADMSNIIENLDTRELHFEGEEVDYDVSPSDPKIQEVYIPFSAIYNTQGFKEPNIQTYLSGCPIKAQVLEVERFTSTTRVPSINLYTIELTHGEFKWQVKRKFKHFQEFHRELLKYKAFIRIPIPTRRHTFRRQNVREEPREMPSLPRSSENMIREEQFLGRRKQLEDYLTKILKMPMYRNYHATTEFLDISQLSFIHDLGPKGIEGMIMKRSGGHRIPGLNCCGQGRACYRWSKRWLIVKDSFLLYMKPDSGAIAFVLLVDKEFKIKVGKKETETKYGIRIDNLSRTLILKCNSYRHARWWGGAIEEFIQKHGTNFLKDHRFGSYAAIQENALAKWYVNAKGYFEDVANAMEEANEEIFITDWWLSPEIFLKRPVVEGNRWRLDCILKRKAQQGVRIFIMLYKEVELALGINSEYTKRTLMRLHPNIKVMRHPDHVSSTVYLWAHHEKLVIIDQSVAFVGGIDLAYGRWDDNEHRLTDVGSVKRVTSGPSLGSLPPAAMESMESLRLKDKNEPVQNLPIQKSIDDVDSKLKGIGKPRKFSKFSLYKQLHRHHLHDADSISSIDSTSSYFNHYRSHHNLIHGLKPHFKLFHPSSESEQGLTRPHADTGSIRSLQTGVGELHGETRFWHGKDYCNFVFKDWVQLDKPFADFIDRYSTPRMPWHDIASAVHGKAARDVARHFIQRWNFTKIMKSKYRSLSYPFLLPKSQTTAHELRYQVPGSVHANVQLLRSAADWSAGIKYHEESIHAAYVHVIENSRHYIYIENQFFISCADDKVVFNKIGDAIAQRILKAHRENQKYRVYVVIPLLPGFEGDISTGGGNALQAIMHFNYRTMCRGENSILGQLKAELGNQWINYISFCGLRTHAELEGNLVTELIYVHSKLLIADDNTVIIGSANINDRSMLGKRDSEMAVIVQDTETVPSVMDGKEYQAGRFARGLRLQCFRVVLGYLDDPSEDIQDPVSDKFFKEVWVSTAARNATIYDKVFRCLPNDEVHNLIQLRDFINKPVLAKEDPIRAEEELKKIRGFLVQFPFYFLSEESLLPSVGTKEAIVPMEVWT

Phospholipase D2 = Phospholipase D2 (Homo sapiens, UniProt O14939); test: Inhibition of GFP-labeled PLD2 in human HEK293 cells; type: cell-based
Chain of Phospholipase D2 (O14939 whole entry): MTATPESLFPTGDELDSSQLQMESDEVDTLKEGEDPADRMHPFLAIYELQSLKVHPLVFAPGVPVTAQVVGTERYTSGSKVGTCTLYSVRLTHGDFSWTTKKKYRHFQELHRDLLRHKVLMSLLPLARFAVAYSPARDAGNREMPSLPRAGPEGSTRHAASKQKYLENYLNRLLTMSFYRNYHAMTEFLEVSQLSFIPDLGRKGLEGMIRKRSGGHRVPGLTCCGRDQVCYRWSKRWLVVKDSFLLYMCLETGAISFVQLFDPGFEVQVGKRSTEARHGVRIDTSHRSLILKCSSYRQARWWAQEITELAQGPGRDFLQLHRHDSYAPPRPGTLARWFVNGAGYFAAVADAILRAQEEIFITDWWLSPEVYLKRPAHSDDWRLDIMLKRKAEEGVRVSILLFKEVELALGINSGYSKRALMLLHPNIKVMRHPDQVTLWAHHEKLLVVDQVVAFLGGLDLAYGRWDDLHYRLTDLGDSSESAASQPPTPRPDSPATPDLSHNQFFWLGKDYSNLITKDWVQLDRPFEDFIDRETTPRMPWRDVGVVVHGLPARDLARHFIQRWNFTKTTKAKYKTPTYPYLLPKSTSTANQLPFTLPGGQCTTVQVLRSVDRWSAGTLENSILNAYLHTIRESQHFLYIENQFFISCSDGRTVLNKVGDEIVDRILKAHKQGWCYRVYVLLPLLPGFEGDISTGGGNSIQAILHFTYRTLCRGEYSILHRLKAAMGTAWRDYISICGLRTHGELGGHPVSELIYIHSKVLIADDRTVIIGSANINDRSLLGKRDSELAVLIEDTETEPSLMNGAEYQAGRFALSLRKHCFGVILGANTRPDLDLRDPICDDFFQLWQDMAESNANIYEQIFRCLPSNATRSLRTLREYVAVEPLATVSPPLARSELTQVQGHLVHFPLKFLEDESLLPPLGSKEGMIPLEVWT

O=C(NCCN1CCC(n2c(=O)[nH]c3ccccc32)CC1)c1ccc2ccccc2c1
fold change (FC) (HEK293): > 1700

O=C(C#Cc1ccccc1)NCCN1CCC2(CC1)C(=O)NCN2c1ccccc1
IC50 (Phospholipase D1): 2100 nM
IC50 (Phospholipase D2): 1600 nM

O=C(NCCN1CCC2(CC1)C(=O)NCN2c1ccccc1)c1cnc2ccccc2n1
IC50 (Phospholipase D1): > 20000 nM
IC50 (Phospholipase D2): > 20000 nM

COc1cc(C(=O)NCCN2CCC3(CC2)C(=O)NCN3c2ccccc2)ccc1N
IC50 (Phospholipase D1): 5900 nM
IC50 (Phospholipase D2): 550 nM

Cc1cccc(C(=O)N[C@@H](C)CN2CCC3(CC2)C(=O)NCN3c2ccccc2)c1
IC50 (Phospholipase D1): 3400 nM
IC50 (Phospholipase D2): 27000 nM

O=C(NCCN1CCC2(CC1)C(=O)NCN2c1ccccc1)c1ccc2ccccc2c1
fold change (FC) (HEK293): 9

O=C(NCCN1CCC2(CC1)C(=O)NCN2c1ccccc1)c1cc2ccccc2s1
IC50 (Phospholipase D1): 150 nM
IC50 (Phospholipase D2): 30 nM

C[C@@H](CN1CCC2(CC1)C(=O)NCN2c1ccccc1)NC(=O)c1ccc(F)c(F)c1
IC50 (Phospholipase D1): 150 nM
IC50 (Phospholipase D2): 200 nM

O=C(NCCN1CCC2(CC1)C(=O)NCN2c1ccccc1)[C@H]1C[C@@H]1c1ccccc1 (relative stereo)
IC50 (Phospholipase D1): > 20000 nM
IC50 (Phospholipase D2): > 20000 nM

C[C@@H](CN1CCC2(CC1)C(=O)NCN2c1ccccc1)NC(=O)[C@H]1C[C@@H]1c1ccccc1
IC50 (Phospholipase D1): 2600 nM
IC50 (Phospholipase D2): 30000 nM
